Data reported in the NIST ThermoML archive (doi:10.1021/acs.jced.7b00875).
± gives the expanded uncertainty stated by the source.

What was measured:
[1] = refractive index (Na D-line) (dimensionless); conditions: 293.15 K; 101.33 kPa; Liquid; Standard Abbe refractometry
[2] = Liquid, Ebulliometric method (Recirculating still)

SMILES	refractive index [1]	vapor or sublimation pressure ([2]; 323.21 K) [kPa]	vapor or sublimation pressure ([2]; 333.21 K) [kPa]	vapor or sublimation pressure ([2]; 343.21 K) [kPa]	vapor or sublimation pressure ([2]; 328.17 K) [kPa]	vapor or sublimation pressure ([2]; 338.17 K) [kPa]	vapor or sublimation pressure ([2]; 348.16 K) [kPa]
CCCCCCCCC [nonane]	1.4074 ± 0.002	2.417 ± 0.92	4.027 ± 0.92	6.331 ± 0.92			
CCCCCCCCCC [decane]	1.4122 ± 0.002				1.18 ± 0.92	1.93 ± 0.92	3.24 ± 0.92
CCO [ethanol]	1.3616 ± 0.002	29.58 ± 0.97	47.04 ± 1	72.39 ± 1.1	37.53 ± 0.98	58.6 ± 1.1	88.83 ± 1.1
